Results: patent publication US20220153746A1, “NITROGEN OXIDE-DONATING PDE-5 AND/OR PDE-6 INHIBITOR COMPOUNDS, AND USES THEREOF” (ILDONG PHARMACEUTICAL CO., LTD., priority 2020, published 2022)
Read-outs that look alike come from different tables or passages of the source.

How the values were obtained:
[1] = molecular target: human PDE-5A1 (Homo sapiens, UniProt O76074); assay: Human PDE-5A1 inhibition assay (fluorescence polarization, FAM-cGMP); assay type: biochemical
[2] = molecular target: human PDE-6C (Homo sapiens, UniProt P51160); assay: Human PDE-6C inhibition assay (fluorescence polarization, FAM-cGMP); assay type: biochemical
Chain of human PDE-6C (P51160 whole entry): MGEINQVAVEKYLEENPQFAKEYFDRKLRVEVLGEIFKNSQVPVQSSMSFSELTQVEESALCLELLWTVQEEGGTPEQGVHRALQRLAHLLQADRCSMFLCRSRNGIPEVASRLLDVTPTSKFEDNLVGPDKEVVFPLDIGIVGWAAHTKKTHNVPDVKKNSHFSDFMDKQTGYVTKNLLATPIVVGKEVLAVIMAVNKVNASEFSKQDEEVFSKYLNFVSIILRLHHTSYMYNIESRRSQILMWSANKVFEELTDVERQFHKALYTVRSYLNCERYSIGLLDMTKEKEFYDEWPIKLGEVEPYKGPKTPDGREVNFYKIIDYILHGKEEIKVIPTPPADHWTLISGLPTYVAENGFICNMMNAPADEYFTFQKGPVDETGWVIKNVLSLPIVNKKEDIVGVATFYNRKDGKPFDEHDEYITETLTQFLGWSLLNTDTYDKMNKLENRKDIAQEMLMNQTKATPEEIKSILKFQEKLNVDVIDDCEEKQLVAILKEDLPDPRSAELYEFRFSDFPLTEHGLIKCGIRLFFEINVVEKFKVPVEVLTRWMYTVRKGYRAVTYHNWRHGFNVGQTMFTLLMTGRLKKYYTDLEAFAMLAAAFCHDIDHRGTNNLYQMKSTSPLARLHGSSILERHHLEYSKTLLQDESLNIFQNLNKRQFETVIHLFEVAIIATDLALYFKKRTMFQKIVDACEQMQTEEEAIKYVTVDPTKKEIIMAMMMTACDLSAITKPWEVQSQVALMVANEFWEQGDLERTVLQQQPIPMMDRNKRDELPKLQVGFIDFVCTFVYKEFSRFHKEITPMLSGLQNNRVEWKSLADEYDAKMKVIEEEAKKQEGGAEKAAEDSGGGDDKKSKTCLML

Row | IC50 ([1]; read-out: IC50 (μM) PDE5A1) [µM] | IC50 ([2]; read-out: IC50 (μM) PDE6C) [µM] | Compound | IC50 [1] [µM] | IC50 [2] [µM]
1 | < 0.01 | < 0.01 | CCCc1nn(C)c2c(=O)[nH]c(-c3cc(S(=O)(=O)NC4CN(CCO[N+](=O)[O-])C4)ccc3OCC)nc12 [Compound 19, 2-(3-((4-ethoxy-3-(1-methyl-7-oxo-3-propyl-6,7-dihydro-1H-pyrazolo[4,3-d]pyrimidin-5-yl)phenyl)sulfonamido)azetidin-1-yl)ethyl nitrate] |  | 
2 | < 0.01 | < 0.01 | CCCc1nn(C)c2c(=O)[nH]c(-c3cc(S(=O)(=O)N4CC(NCCOC(=O)CCCCO[N+](=O)[O-])C4)ccc3OCC)nc12 [Compound 66, 2-((1-((4-ethoxy-3-(1-methyl-7-oxo-3-propyl-6,7-dihydro-1H-pyrazolo[4,3-d]pyrimidin-5-yl)phenyl)sulfonyl)azetidin-3-yl)amino)ethyl 5-(nitrooxy)pentanoate] |  | 
3 | < 0.01 | < 0.01 | CCCc1nn(C)c2c(=O)[nH]c(-c3cc(S(=O)(=O)N4CC(N(C)CCO[N+](=O)[O-])C4)ccc3OCC)nc12 [Compound 23, 2-((1-((4-ethoxy-3-(1-methyl-7-oxo-3-propyl-6,7-dihydro-1H-pyrazolo[4,3-d]pyrimidin-5-yl)phenyl)sulfonyl)azetidin-3-yl)(methyl)amino)ethyl nitrate] |  | 
4 | 0.01 to 0.1 | 0.01 to 0.1 | CCCc1nn(C)c2c(=O)[nH]c(-c3cc(S(=O)(=O)N4CC(O)C4)ccc3OCC)nc12 [Compound 1, 5-(2-ethoxy-5-((3-hydroxyazetidin-1-yl)sulfonyl)phenyl)-1-methyl-3-propyl-1,6-dihydro-7H-pyrazolo[4,3-d] pyrimidin-7-one] |  | 
5 | 0.01 to 0.1 | 0.01 to 0.1 | CCCc1nn(C)c2c(=O)[nH]c(-c3cc(S(=O)(=O)NC4CN(CCO)C4)ccc3OCC)nc12 [Compound 6, 4-ethoxy-N-(1-(2-hydroxyethyl)azetidin-3-yl)-3-(1-methyl-7-oxo-3-propyl-6,7-dihydro-1H-pyrazolo[4,3-d]pyrimidin-5-yl)benzenesulfonamide] |  | 
6 | < 0.01 | < 0.01 | CCCc1nn(C)c2c(=O)[nH]c(-c3cc(S(=O)(=O)N4CC(N(C)CCO)C4)ccc3OCC)nc12 [Compound 12, 5-(2-ethoxy-5-((3-((2-hydroxyethyl)(methyl)amino)azetidin-1-yl)sulfonyl)phenyl)-1-methyl-3-propyl-1,6-dihydro-7H-pyrazolo[4,3-d]pyrimidin-7-one] |  | 
7 | < 0.01 | < 0.01 | CCCc1nn(C)c2c(=O)[nH]c(-c3cc(S(=O)(=O)N4CC(NCCO[N+](=O)[O-])C4)ccc3OCC)nc12 [Compound 21, 2-((1-((4-ethoxy-3-(1-methyl-7-oxo-3-propyl-6,7-dihydro-1H-pyrazolo[4,3-d]pyrimidin-5-yl)phenyl)sulfonyl)azetidin-3-yl)amino)ethyl nitrate] |  | 
8 | < 0.01 | < 0.01 | CCCc1nn(C)c2c(=O)[nH]c(-c3cc(S(=O)(=O)N4CC(N(C)CCCCO)C4)ccc3OCC)nc12 [Compound 14, 5-(2-ethoxy-5-((3-((4-hydroxybutyl)(methyl)amino)azetidin-1-yl)sulfonyl)phenyl)-1-methyl-3-propyl-1,6-dihydro-7H-pyrazolo[4,3-d] pyrimidin-7-one] |  | 
9 | 0.01 to 0.1 | 0.01 to 0.1 | CCCc1nn(C)c2c(=O)[nH]c(-c3cc(S(=O)(=O)N4CC(CO)C4)ccc3OCC)nc12 [Compound 2, 5-(2-ethoxy-5-((3-(hydroxymethyl)azetidin-1-yl)sulfonyl)phenyl)-1-methyl-3-propyl-1,6-dihydro-7H-pyrazolo[4,3-d]pyrimidin-7-one] |  | 
10 | < 0.01 | < 0.01 | CCCc1nn(C)c2c(=O)[nH]c(-c3cc(S(=O)(=O)N4CC(CCO)C4)ccc3OCC)nc12 [Compound 3, 5-(2-ethoxy-5-((3-(2-hydroxyethyl)azetidin-1-yl)sulfonyl)phenyl)-1-methyl-3-propyl-1,6-dihydro-7H-pyrazolo[4,3-d]pyrimidin-7-one] |  | 
11 |  |  | CCCc1nn(C)c2c(=O)[nH]c(-c3cc(S(=O)(=O)N4CC(NCCOC(=O)CCCCC(CO[N+](=O)[O-])O[N+](=O)[O-])C4)ccc3OCC)nc12 (centres unmarked) [Compound 69, 2-((1-((4-ethoxy-3-(1-methyl-7-oxo-3-propyl-6,7-dihydro-1H-pyrazolo[4,3-d]pyrimidin-5-yl)phenyl)sulfonyl)azetidin-3-yl)amino)ethyl 6,7-bis(nitrooxy)heptanoate] | < 0.01 | < 0.01
12 |  |  | CCCc1nn(C)c2c(=O)[nH]c(-c3cc(S(=O)(=O)N4CC(CCCOC(=O)CCCCC(CO[N+](=O)[O-])O[N+](=O)[O-])C4)ccc3OCC)nc12 (centres unmarked) [Compound 68, 3-(1-((4-ethoxy-3-(1-methyl-7-oxo-3-propyl-6,7-dihydro-1H-pyrazolo[4,3-d]pyrimidin-5-yl)phenyl)sulfonyl)azetidin-3-yl)propyl 6,7-bis(nitrooxy)heptanoate] | 0.01 to 0.1 | < 0.01
13 |  |  | CCCc1nn(C)c2c(=O)[nH]c(-c3cc(S(=O)(=O)N4CC(N(C)CCOC(=O)CCCCC(CO[N+](=O)[O-])O[N+](=O)[O-])C4)ccc3OCC)nc12 (centres unmarked) [Compound 70, 2-((1-((4-ethoxy-3-(1-methyl-7-oxo-3-propyl-6,7-dihydro-1H-pyrazolo[4,3-d]pyrimidin-5-yl)phenyl)sulfonyl)azetidin-3-yl)(methyl)amino)ethyl 6,7-bis(nitrooxy)heptanoate] | < 0.01 | < 0.01
14 | < 0.01 | < 0.01 | CCCc1nn(C)c2c(=O)[nH]c(-c3cc(S(=O)(=O)N4CC(CCCOC(=O)CCCCCO[N+](=O)[O-])C4)ccc3OCC)nc12 [Compound 65, 3-(1-((4-ethoxy-3-(1-methyl-7-oxo-3-propyl-6,7-dihydro-1H-pyrazolo[4,3-d]pyrimidin-5-yl)phenyl)sulfonyl)azetidin-3-yl)propyl 6-(nitrooxy)hexanoate] |  | 
15 | 0.01 to 0.1 | 0.01 to 0.1 | CCCc1nn(C)c2c(=O)[nH]c(-c3cc(S(=O)(=O)N4CC(CN5CC(CO[N+](=O)[O-])C5)C4)ccc3OCC)nc12 [Compound 37, (1-((1-((4-ethoxy-3-(1-methyl-7-oxo-3-propyl-6,7-dihydro-1H-pyrazolo[4,3-d]pyrimidin-5-yl)phenyl)sulfonyl)azetidin-3-yl)methyl)azetidin-3-yl)methyl nitrate] |  | 
16 | < 0.01 | < 0.01 | CCCc1nn(C)c2c(=O)[nH]c(-c3cc(S(=O)(=O)N4CC(CCCOC(=O)CCCO[N+](=O)[O-])C4)ccc3OCC)nc12 [Compound 72, 3-(1-((4-ethoxy-3-(1-methyl-7-oxo-3-propyl-6,7-dihydro-1H-pyrazolo[4,3-d]pyrimidin-5-yl)phenyl)sulfonyl)azetidin-3-yl)propyl 4-(nitrooxy)butanoate] |  | 
17 | < 0.01 | < 0.01 | CCCc1nn(C)c2c(=O)[nH]c(-c3cc(S(=O)(=O)N4CC(N5CC(O[N+](=O)[O-])C5)C4)ccc3OCC)nc12 [Compound 39, 1′-((4-ethoxy-3-(1-methyl-7-oxo-3-propyl-6,7-dihydro-1H-pyrazolo[4,3-d]pyrimidin-5-yl)phenyl)sulfonyl)-[1,3′-biazetidin]-3-yl nitrate] |  | 
18 | 0.01 to 0.1 | 0.01 to 0.1 | CCCc1nn(C)c2c(=O)[nH]c(-c3cc(S(=O)(=O)N4CC(OCCO)C4)ccc3OCC)nc12 [Compound 25, 5-(2-ethoxy-5-((3-(2-hydroxyethoxy)azetidin-1-yl)sulfonyl)phenyl)-1-methyl-3-propyl-1,6-dihydro-7H-pyrazolo[4,3-d] pyrimidin-7-one] |  | 
19 | 0.01 to 0.1 | 0.01 to 0.1 | CCCc1nn(C)c2c(=O)[nH]c(-c3cc(S(=O)(=O)N4CC(NCCO)C4)ccc3OCC)nc12 [Compound 9, 5-(2-ethoxy-5-((3-((2-hydroxyethyl)amino)azetidin-1-yl)sulfonyl)phenyl)-1-methyl-3-propyl-1,6-dihydro-7H-pyrazolo[4,3-d]pyrimidin-7-one] |  | 
20 | 0.01 to 0.1 | < 0.01 | CCCc1nn(C)c2c(=O)[nH]c(-c3cc(S(=O)(=O)N4CC(OCCCO[N+](=O)[O-])C4)ccc3OCC)nc12 [Compound 35, 3-((1-((4-ethoxy-3-(1-methyl-7-oxo-3-propyl-6,7-dihydro-1H-pyrazolo[4,3-d]pyrimidin-5-yl)phenyl)sulfonyl)azetidin-3-yl)oxy)propyl nitrate] |  | 
21 | 0.01 to 0.1 | < 0.01 | CCCc1nn(C)c2c(=O)[nH]c(-c3cc(S(=O)(=O)N4CC(OCCO[N+](=O)[O-])C4)ccc3OCC)nc12 [Compound 34, 2-((1-((4-ethoxy-3-(1-methyl-7-oxo-3-propyl-6,7-dihydro-1H-pyrazolo[4,3-d]pyrimidin-5-yl)phenyl)sulfonyl)azetidin-3-yl)oxy)ethyl nitrate] |  | 
22 | 0.01 to 0.1 | < 0.01 | CCCc1nn(C)c2c(=O)[nH]c(-c3cc(S(=O)(=O)N4CC(N5CC(O)C5)C4)ccc3OCC)nc12 [Compound 31, 5-(2-ethoxy-5-((3-hydroxy-[1,3′-biazetidin]-1′-yl)sulfonyl)phenyl)-1-methyl-3-propyl-1,6-dihydro-7H-pyrazolo [4,3-d]pyrimidin-7-one] |  | 
23 | < 0.01 | < 0.01 | CCCc1nn(C)c2c(=O)[nH]c(-c3cc(S(=O)(=O)N4CC(CCCOC(=O)CCCCO[N+](=O)[O-])C4)ccc3OCC)nc12 [Compound 71, 3-(1-((4-ethoxy-3-(1-methyl-7-oxo-3-propyl-6,7-dihydro-1H-pyrazolo[4,3-d]pyrimidin-5-yl)phenyl)sulfonyl)azetidin-3-yl)propyl 5-(nitrooxy)pentanoate] |  | 
24 | 0.01 to 0.1 | 0.01 to 0.1 | CCCc1nn(C)c2c(=O)[nH]c(-c3cc(S(=O)(=O)N4CC(O[N+](=O)[O-])C4)ccc3OCC)nc12 [Compound 15, 1-((4-ethoxy-3-(1-methyl-7-oxo-3-propyl-6,7-dihydro-1H-pyrazolo[4,3-d]pyrimidin-5-yl)phenyl)sulfonyl) azetidin-3-yl nitrate] |  | 
25 | 0.01 to 0.1 | 0.01 to 0.1 | CCCc1nn(C)c2c(=O)[nH]c(-c3cc(S(=O)(=O)N4CC(NCCCCO)C4)ccc3OCC)nc12 [Compound 11, 5-(2-ethoxy-5-((3-((4-hydroxybutyl)amino)azetidin-1-yl)sulfonyl)phenyl)-1-methyl-3-propyl-1,6-dihydro-7H-pyrazolo[4,3-d]pyrimidin-7-one] |  | 
